Reference: paper PMC6026847, “Synthesis and Evaluation of the First Fluorescent Antagonists of the Human P2Y2 Receptor Based on AR-C118925” (Journal of Medicinal Chemistry, 2018)
Like-named read-outs stand apart in the source and are kept apart here.

Target: T1, hP2Y2R (Homo sapiens, UniProt P41231)
T1 construct: The 1321N1 cells expressing wild-type P2Y2R (P2Y2R-1321N1) were gifted by Dr. Elizabeth Rosethorne; expressed in transfected cells; host or cells: 1321N1 astrocytoma cells (P2Y2R-1321N1), gifted
Test: Calcium-mobilization assay in P2Y2-1321N1 cells (antagonism of UTPγS)
Format: cell-based
Details: for Kb / hP2Y2 pKb: Gaddum equation; for hP2Y2R antagonist activity in words: calcium-mobilization assay

[1] = Table 2, shift of UTPγS concentration–response curve by a single antagonist concentration, mean ± SEM, read-out: hP2Y2 pKb (converted)
[2] = Table 1, shift of UTPγS concentration–response curve by a single antagonist concentration, mean ± SEM, read-out: hP2Y2 pKb (converted)
[3] = Table 2, shift of UTPγS concentration–response curve by a single antagonist concentration, mean ± SEM
[4] = Table 3, resolved enantiomers, shift of UTPγS curve, mean ± SEM, read-out: hP2Y2 pKb (converted)

T1 sequence (P41231 whole entry): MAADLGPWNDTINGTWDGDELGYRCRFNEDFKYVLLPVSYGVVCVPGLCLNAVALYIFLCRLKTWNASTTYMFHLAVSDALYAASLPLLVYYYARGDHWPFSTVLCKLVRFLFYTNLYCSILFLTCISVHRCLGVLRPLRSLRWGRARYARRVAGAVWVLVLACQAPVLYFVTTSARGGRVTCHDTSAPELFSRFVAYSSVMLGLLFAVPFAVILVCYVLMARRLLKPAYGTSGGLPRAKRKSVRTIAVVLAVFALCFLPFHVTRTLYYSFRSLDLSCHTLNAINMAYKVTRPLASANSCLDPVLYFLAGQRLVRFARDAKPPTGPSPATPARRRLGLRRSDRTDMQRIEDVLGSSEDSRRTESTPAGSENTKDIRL

| Compound | hP2Y2R antagonist activity in words | hP2Y2 pKb [3] | other results |
| --- | --- | --- | --- |
| COCCNc1nc2c(s1)C=Cc1cc(Cl)ccc1C2c1cn(C)c(=O)[nH]c1=S (racemic) [Example 14, 5-(7-Chloro-2-((2-methoxyethyl)amino)-4H-benzo[5,6]cyclohepta[1,2-d]thiazol-4-yl)-1-methyl-4-thioxo-3,4-dihydropyrimidin-2(1H)-one] | – | – | Kb [1]: 251 nM |
| Cc1ccc2c(c1)C=Cc1cc(C)ccc1C2c1cn(Cc2nc(C(=O)Nc3nnn[nH]3)cs2)c(=O)[nH]c1=S [Example 3, 2-((5-(2,8-Dimethyl-5H-dibenzo[a,d][7]annulen-5-yl)-2-oxo-4-thioxo-3,4-dihydropyrimidin-1(2H)-yl)methyl)-N-(1H-tetrazol-5-yl)thiazole-4-carboxamide] | – | – | Kb [2]: 77.6 nM |
| Cc1ccc2c(c1)C=Cc1cc(C)ccc1C2c1cn(C)c(=O)[nH]c1=S [Example 4, 5-(2,8-Dimethyl-5H-dibenzo[a,d][7]annulen-5-yl)-1-methyl-4-thioxo-3,4-dihydropyrimidin-2(1H)-one] | inactive | – | hP2Y2 pKb (Table 1, shift of UTPγS concentration–response curve by a single antagonist concentration, mean ± SEM): IA ^b (IA = inactive; i.e., less than a 50% inhibition of the response to 0.1 μM UTPγS in the presence of a 10 μM concentration of the compound) |
| Cc1nc2c(s1)C=Cc1cc(Cl)ccc1C2c1cn(Cc2nc(C(=O)Nc3nnn[nH]3)cs2)c(=O)[nH]c1=S (centres unmarked) [Example 5, 2-((5-(7-Chloro-2-methyl-4H-benzo[5,6]cyclohepta[1,2-d]thiazol-4-yl)-2-oxo-4-thioxo-3,4-dihydropyrimidin-1(2H)-yl)methyl)-N-(1H-tetrazol-5-yl)thiazole-4-carboxamide] | – | – | Kb [2]: 331 nM |
| Cc1nc2c(s1)C=Cc1cc(Cl)ccc1C2c1cn(C)c(=O)[nH]c1=S (centres unmarked) [Example 6, 5-(7-Chloro-2-methyl-4H-benzo[5,6]cyclohepta[1,2-d]thiazol-4-yl)-1-methyl-4-thioxo-3,4-dihydropyrimidin-2(1H)-one] | – | – | Kb [2]: 1020 nM |
| Cn1cc(C2c3ccc(Cl)cc3C=Cc3sc(N)nc32)c(=S)[nH]c1=O (centres unmarked) [Example 7, 5-(2-Amino-7-chloro-4H-benzo[5,6]cyclohepta[1,2-d]thiazol-4-yl)-1-methyl-4-thioxo-3,4-dihydropyrimidin-2(1H)-one] | – | – | Kb [1]: 275 nM |
| Cn1cc(C2c3ccc(Cl)cc3C=Cc3sc(Nc4ccccc4)nc32)c(=S)[nH]c1=O (centres unmarked) [Example 8, 5-(7-Chloro-2-(phenylamino)-4H-benzo[5,6]cyclohepta[1,2-d]thiazol-4-yl)-1-methyl-4-thioxo-3,4-dihydropyrimidin-2(1H)-one] | inactive | IA ^b (3) (IA = inactive; i.e., less than a 50% inhibition of the response to 0.1 μM UTPγS in the presence of a 10 μM concentration of the compound (n = 3)) | – |
| Cn1cc(C2c3ccc(Cl)cc3C=Cc3sc(NCc4ccccc4)nc32)c(=S)[nH]c1=O (centres unmarked) [Example 9, 5-(2-(Benzylamino)-7-chloro-4H-benzo[5,6]cyclohepta[1,2-d]thiazol-4-yl)-1-methyl-4-thioxo-3,4-dihydropyrimidin-2(1H)-one] | inactive | IA (3) (IA = inactive; i.e., less than a 50% inhibition of the response to 0.1 μM UTPγS in the presence of a 10 μM concentration of the compound (n = 3)) | – |
| Cn1cc(C2c3ccc(Cl)cc3C=Cc3sc(NCCc4ccccc4)nc32)c(=S)[nH]c1=O (centres unmarked) [Example 10, 5-(7-Chloro-2-(phenethylamino)-4H-benzo[5,6]cyclohepta[1,2-d]thiazol-4-yl)-1-methyl-4-thioxo-3,4-dihydropyrimidin-2(1H)-one] | inactive | IA (3) (IA = inactive; i.e., less than a 50% inhibition of the response to 0.1 μM UTPγS in the presence of a 10 μM concentration of the compound (n = 3)) | – |
| CN1CCN(c2nc3c(s2)C=Cc2cc(Cl)ccc2C3c2cn(C)c(=O)[nH]c2=S)CC1 (centres unmarked) [Example 11, 5-(7-Chloro-2-(4-methylpiperazin-1-yl)-4H-benzo[5,6]cyclohepta[1,2-d]thiazol-4-yl)-1-methyl-4-thioxo-3,4-dihydropyrimidin-2(1H)-one] | inactive | IA (3) (IA = inactive; i.e., less than a 50% inhibition of the response to 0.1 μM UTPγS in the presence of a 10 μM concentration of the compound (n = 3)) | – |
| Cn1cc(C2c3ccc(Cl)cc3C=Cc3sc(N4CCOCC4)nc32)c(=S)[nH]c1=O (centres unmarked) [Example 12, 5-(7-Chloro-2-morpholino-4H-benzo[5,6]cyclohepta[1,2-d]thiazol-4-yl)-1-methyl-4-thioxo-3,4-dihydropyrimidin-2(1H)-one] | inactive | IA (3) (IA = inactive; i.e., less than a 50% inhibition of the response to 0.1 μM UTPγS in the presence of a 10 μM concentration of the compound (n = 3)) | – |
| Cn1cc(C2c3ccc(Cl)cc3C=Cc3sc(N4CCCCC4)nc32)c(=S)[nH]c1=O (centres unmarked) [Example 13, 5-(7-Chloro-2-(piperidin-1-yl)-4H-benzo[5,6]cyclohepta[1,2-d]thiazol-4-yl)-1-methyl-4-thioxo-3,4-dihydropyrimidin-2(1H)-one] | inactive | IA (3) (IA = inactive; i.e., less than a 50% inhibition of the response to 0.1 μM UTPγS in the presence of a 10 μM concentration of the compound (n = 3)) | – |
| COCCCNc1nc2c(s1)C=Cc1cc(Cl)ccc1C2c1cn(C)c(=O)[nH]c1=S (centres unmarked) [Example 15, 5-(7-Chloro-2-((3-methoxypropyl)amino)-4H-benzo[5,6]cyclohepta[1,2-d]thiazol-4-yl)-1-methyl-4-thioxo-3,4-dihydropyrimidin-2(1H)-one] | – | – | Kb [1]: 275 nM |
| CCOCCNc1nc2c(s1)C=Cc1cc(Cl)ccc1C2c1cn(C)c(=O)[nH]c1=S (centres unmarked) [Example 16, 5-(7-Chloro-2-((2-ethoxyethyl)amino)-4H-benzo[5,6]cyclohepta[1,2-d]thiazol-4-yl)-1-methyl-4-thioxo-3,4-dihydropyrimidin-2(1H)-one] | – | – | Kb [1]: 186 nM |
| CC(C)OCCNc1nc2c(s1)C=Cc1cc(Cl)ccc1C2c1cn(C)c(=O)[nH]c1=S (centres unmarked) [Example 17, 5-(7-Chloro-2-((2-isopropoxyethyl)amino)-4H-benzo[5,6]cyclohepta[1,2-d]thiazol-4-yl)-1-methyl-4-thioxo-3,4-dihydropyrimidin-2(1H)-one] | – | – | Kb [1]: 324 nM |
| Cn1cc(C2c3ccc(Cl)cc3C=Cc3sc(NCCOc4ccccc4)nc32)c(=S)[nH]c1=O (centres unmarked) [Example 18, 5-(7-Chloro-2-((2-phenoxyethyl)amino)-4H-benzo[5,6]cyclohepta[1,2-d]thiazol-4-yl)-1-methyl-4-thioxo-3,4-dihydropyrimidin-2(1H)-one] | inactive | IA (3) (IA = inactive; i.e., less than a 50% inhibition of the response to 0.1 μM UTPγS in the presence of a 10 μM concentration of the compound (n = 3)) | – |
| Cn1cc(C2c3ccc(Cl)cc3C=Cc3sc(-c4ccccc4)nc32)c(=S)[nH]c1=O (centres unmarked) [Example 19, 5-(7-Chloro-2-phenyl-4H-benzo[5,6]cyclohepta[1,2-d]thiazol-4-yl)-1-methyl-4-thioxo-3,4-dihydropyrimidin-2(1H)-one] | complete loss of affinity | IA (3) (IA = inactive; i.e., less than a 50% inhibition of the response to 0.1 μM UTPγS in the presence of a 10 μM concentration of the compound (n = 3)) | – |
| COCCNc1nc2c(s1)C=Cc1cc(Cl)ccc1C2c1cn(C)c(=O)[nH]c1=S (centres unmarked) [Example 20] | – | – | Kb [4]: 234 nM |
| COCCNc1nc2c(s1)C=Cc1cc(Cl)ccc1C2c1cn(C)c(=O)[nH]c1=S (centres unmarked) [Example 21] | – | – | Kb [4]: 1510 nM |
| CCOCCNc1nc2c(s1)C=Cc1cc(Cl)ccc1C2c1cn(C)c(=O)[nH]c1=S (centres unmarked) [Example 22] | – | – | hP2Y2 pKb (Table 3, resolved enantiomers, shift of UTPγS curve, mean ± SEM): IA ^c (3) (IA = inactive; i.e., less than a 50% inhibition of the response to 0.1 μM UTPγS in the presence of a 10 μM concentration of the compound (n = 3)); Kb (Table 7, shift of agonist dose–response curve by a single antagonist concentration, mean ± SEM, read-out: pKb Ca2+ mobilization (converted)): > 10000 nM |
| CCOCCNc1nc2c(s1)C=Cc1cc(Cl)ccc1C2c1cn(C)c(=O)[nH]c1=S (centres unmarked) [Example 23] | – | – | Kb [4]: 166 nM |
| COCCNc1nc2c(s1)C=Cc1cc(Cl)ccc1C2c1cn(Cc2nc(C(=O)Nc3nnn[nH]3)cs2)c(=O)[nH]c1=S (centres unmarked) [Example 24, 2-((5-(7-Chloro-2-((2-methoxyethyl)amino)-4H-benzo[5,6]cyclohepta[1,2-d]thiazol-4-yl)-2-oxo-4-thioxo-3,4-dihydropyrimidin-1(2H)-yl)methyl)-N-(1H-tetrazol-5-yl)thiazole-4-carboxamide] | – | – | Kd (quoted in text for nonfluorescent antagonists, mean ± SEM, read-out: hP2Y2R affinity pKd (converted)): 95.5 nM |
